Tested on: PKC (mix of isoforms)
Assay: PKC assay (counter screen)
Format: biochemical
Conditions: myelin basic protein substrate; read-out: Counter screens IC50 (μM) PKC
Experimental: Each PKC assay consists of the following components:
Final assay concentrations were as follows: 0.25 mM EGTA, 0.4 mM CaCl, 20 mM Tris pH 7.5, 10 mM MgCl, 1 mM 2-mercaptoethanol, 0.32 mg/ml phosphatidylserine, 0.032 mg/ml diacylglycerol, 10 μM ^33P-ATP, 70 μg/ml MBP, 10 ng/ml PKC, 0.1 mg/ml BSA.
Assays are performed using 96 deep well assay plates. In each assay well 10 μl of solvent control or appropriate inhibitor dilution with 5 μl ^33P-ATP (components #5 and #3) were premixed. In a separate tube, a mixture containing equal volumes of components #1, #2, #4, and #6 was prepared. The assay reaction was initiated, by adding 35 μl of the components #1, #2, #4, and #6 mixture to wells containing ^33P-ATP and inhibitor. The liquid in the assay wells was thoroughly mixed and the assay reactions incubated for 20 minutes at room temperature. The reactions were stopped by adding 100 mM EDTA (50 μl) and 100 mM sodium pyrophosphate (50 μl) and mixing. Phosphorylated MBP was collected on PVDF membranes in 96 well filter plates and quantitated by scintillation counting.

Compound	IC50
CN(C)CC(C)(C)CNc1nn2c(-c3ccccc3)nnc2c2ccccc12 [Compound 1, 2,2,N,N-tetramethyl-N-(3-phenyl-[1,2,4]triazolo[3,4-α]phthalazin-6-yl)-propane-1,3-diamine]	> 40 µM
COc1ccc(-c2nnc3c4ccccc4c(NCC(C)(C)CN(C)C)nn23)cc1 [Compound 2, N′-[3-(4-Methoxy-phenyl)-[1,2,4]triazolo[4,3-α]phthalazin-6-yl)-2,2,N,N-tetramethyl-propane-1,3-diamine]	> 40 µM
